How the values were obtained:
BT-549 = assay: S-phase arrest (cell cycle FACS); format: cell-based; design: key: “+” (present); “−” (absent); conditions: Rb x, p53 x
Description: (§1) Cell cycle phase distribution in control (C) cells or cells treated at 20 or 200 nM Compound 1 for 24 hours (24 h) determined by fluorescence activated cell sorting (FACS) analysis, and detection of histone H2A variant H2A.X phosphorylation (γH2A.X, also referred to herein as gamma H2A.X or γH2A.X) by Western blot as DNA damage biomarker.
(§2) In table 1, “wt”=wild-type; “x”=cells harboring Rb and p53 deficiencies; “+” (present) or “−” (absent) indicate the arrest (i.e. accumulation) of cells in S-phase triggered by Compound 1, which coincided with accumulation of the DNA damage marker phosphorylated gamma H2AX (γH2AX; see FIG. 3A). These events are followed by activation of caspases 3 and 7 as indicators of cell apoptosis as indicated by “+” (present) or “−” (absent). In cancer cells with intact Rb and/or p53 functions (wt=wild-type), Compound 1 induced growth arrest but not a substantial increase of cells in S-phase (=S-phase arrest). Upon release of treatment, such cells are able to proliferate again.

NCI-H660 = assay: S-phase arrest (cell cycle FACS); format: cell-based; design: key: “+” (present); “−” (absent); conditions: Rb x, p53 x
Description: as §1, §2

Y-79 = assay: S-phase arrest (cell cycle FACS); format: cell-based; design: key: “+” (present); “−” (absent); conditions: Rb x, p53 wt
Description: as §1, §2

SCLC-21H = assay: S-phase arrest (cell cycle FACS); format: cell-based; design: key: “+” (present); “−” (absent); conditions: Rb x, p53 x
Description: as §1, §2

NCI-H69 = assay: S-phase arrest (cell cycle FACS); format: cell-based; design: key: “+” (present); “−” (absent); conditions: Rb x, p53 x
Description: as §1, §2

NCI-H209 = assay: S-phase arrest (cell cycle FACS); format: cell-based; design: key: “+” (present); “−” (absent); conditions: Rb x, p53 x
Description: as §1, §2

22Rv1 = assay: S-phase arrest (cell cycle FACS); format: cell-based; design: key: “+” (present); “−” (absent); conditions: Rb wt, p53 wt
Description: as §1, §2

NCI-H146 = assay: S-phase arrest (cell cycle FACS); format: cell-based; design: key: “+” (present); “−” (absent); conditions: Rb x, p53 x
Description: as §1, §2

Hut-78 = assay: S-phase arrest (cell cycle FACS); format: cell-based; design: key: “+” (present); “−” (absent); conditions: Rb x, p53 x
Description: as §1, §2

NCI-H82 = assay: S-phase arrest (cell cycle FACS); format: cell-based; design: key: “+” (present); “−” (absent); conditions: Rb x, p53 x
Description: as §1, §2

DU-145 = assay: S-phase arrest (cell cycle FACS); format: cell-based; design: key: “+” (present); “−” (absent); conditions: Rb x, p53 x
Description: as §1, §2

LNCaP = assay: S-phase arrest (cell cycle FACS); format: cell-based; design: key: “+” (present); “−” (absent); conditions: Rb wt, p53 wt
Description: as §1, §2

AR = assay: AR-driven gene expression in LNCaP cells stimulated with DHT; format: cell-based; conditions: PSA (KLK3), TMPRSS2, SLC45A3; DHT induction; 30, 300, 3000 nM
Description: Compound 1 concentrations from left to right: 30, 300, 3000 nM. Basal level indicates expression level in cells with no DHT treatment.
In SCLC, the expression of p300 and CBP is associated with poor prognosis (see Gao et al, Int J Clin Exp Pathol. 2014 Jan. 15; 7(2):760-7) with high p300 and CBP expressions being independent prognostic markers of poor overall survival (OS) for resected SCLC patients.

[1] = 28-day once weekly oral repeated-dose DRF study in CD-1 mice (mesylate salt), plasma; format: in vivo; conditions: male; for Tmax / Cmax / AUC(0-t) / half-life: CD-1, mouse, plasma, po; for AUC(0-t): read-out: AUC0-8h
Description: This study explored the PK of Compound 1 after once weekly oral administration of 300 and 600 mg/kg/week for 4 consecutive weeks to male CD-1 mice.
Compound 1 (mesylate salt) was administered in 4 weekly doses by oral gavage to groups of male CD-1 mice (n=3/group) at dose levels of 300 and 600 mg/kg bodyweight per week. A suspension of 0.5% methylcellulose (w/v) in sterile water served as vehicle. Blood samples for PK analysis were collected after the second (Day 8) and fourth (Day 22) dosing at pre-dose, 0.25, 0.5, 1, 2, 4, 8, and 24 hours (the latter time point only after the 2nd dose) after administration.
Total plasma concentrations of Compound 1 were analyzed using a qualified LC-MS/MS method.

[2] = Single dose intravenous and oral PK in Beagle dogs (citrate salt); format: in vivo; design: AUC(0-t) / AUC(0-inf): unit not given here; conditions: for AUC(0-inf) / AUC(0-t) / Tmax / half-life: both sexes, dog, whole blood
Description: This study determined the PK profile of Compound 1 following a single intravenous injection or oral gavage administration to Beagle dogs.
Compound 1 (citrate salt) was administered to two groups of dogs (n=1/sex/group) once by intravenous injection on Day 1, dose levels of 1 (Group 1) or 4 (Group 2) mg/kg/adm, and once by oral gavage on Day 3, dose levels of 3 (Group 1) and 12 (Group 2) mg/kg/adm, respectively. The vehicle was 5% dextrose in water for intravenous and aqueous citrate buffer solution for oral gavage administrations. Relative to each dosing on Days 1 and 3, series of blood samples were collected at pre-dose, 0.083, 0.25, 0.5, 1, 2, 4, and 7 hours for intravenous or at 0.25, 0.5, 1, 2, 4, 7, and 24 hours for oral gavage administration for analysis of Compound 1 concentrations in blood and subsequent calculation of PK parameters. Additional endpoints monitored during this study included mortality, clinical observations and body weight.

[3] = 300 mg/kg, 300 mg/kg/week, 2nd dose (Week 2)
[4] = 300 mg/kg, 300 mg/kg/week, 4th dose (Week 4)
[5] = 600 mg/kg, 600 mg/kg/week, 2nd dose (Week 2)
[6] = 600 mg/kg, 600 mg/kg/week, 4th dose (Week 4)

Which results are given for `CC(C)C[C@@H]1NCCN([C@@H](CC(C)C)C(=O)N2CCC3(C[C@@H]2C)OCC(CN2CCCC2)CO3)C1=O` (stereo partly drawn) [Compound 1, (S)-3-isobutyl-1-((S)-4-methyl-1-((S)-8-methyl-3-(pyrrolidin-1-ylmethyl)-1,5-dioxa-9-azaspiro[5.5]undecan-9-yl)-1-oxopentan-2-yl)piperazin-2-one]?
S-Phase Arrest (BT-549): +; S-Phase Arrest (NCI-H660): +; S-Phase Arrest (Y-79): −; S-Phase Arrest (SCLC-21H): +; S-Phase Arrest (NCI-H69): +; S-Phase Arrest (NCI-H209): +; S-Phase Arrest (22Rv1): −; S-Phase Arrest (NCI-H146): +; S-Phase Arrest (Hut-78): +; S-Phase Arrest (NCI-H82): +; S-Phase Arrest (DU-145): +; S-Phase Arrest (LNCaP): −; AR target gene expression (AR): effectively downregulates target genes; Tmax ([1]; 300 mg/kg, 300 mg/kg/week, 2nd dose): 1 h; Cmax [1, 3]: 8130 ng/mL; AUC(0-t) [1, 3]: 13600 ng·h/mL; Tmax ([1]; 300 mg/kg, 300 mg/kg/week, 4th dose): 1.3 h; Cmax [1, 4]: 8370 ng/mL; AUC(0-t) [1, 4]: 38200 ng·h/mL; Tmax ([1]; 600 mg/kg, 600 mg/kg/week, 2nd dose): 5.7 h; Cmax [1, 5]: 13400 ng/mL; AUC(0-t) [1, 5]: 47800 ng·h/mL; Tmax ([1]; 600 mg/kg, 600 mg/kg/week, 4th dose): 0.5 h; Cmax [1, 6]: 28800 ng/mL; AUC(0-t) [1, 6]: 125000 ng·h/mL; half-life ([1]; 300 mg/kg/week, 2nd dose): 4.1 h; half-life ([1]; 600 mg/kg/week, 4th dose): 85.8 h; tolerability ([1]; once weekly orally for 4 weeks at 300 and 600 mg/kg/week): well tolerated; Cl ([2]; IV 1 mg/kg): 0.0057 (mg/kg)/(nmo/L)/h; Vss ([2]; IV 1 mg/kg): 0.004 (mg/kg)/(nmo/L); Cl ([2]; IV 4 mg/kg): 0.0014 (mg/kg)/(nmo/L)/h; Vss ([2]; IV 4 mg/kg): 0.004 (mg/kg)/(nmo/L); tolerability ([2]; IV 1 and 4 mg/kg/adm or oral gavage 3 and 12 mg/kg/adm): well tolerated; AUC(0-inf) ([2]; Beagle, IV 1 mg/kg): 0.089; AUC(0-t) ([2]; Beagle, IV 1 mg/kg): 0.063; Tmax ([2]; Beagle, IV 1 mg/kg): 0.08 h; half-life ([2]; Beagle, IV 1 mg/kg): 0.5 h; AUC(0-inf) ([2]; Beagle, po 12 mg/kg): 2.39; AUC(0-t) ([2]; Beagle, po 12 mg/kg): 1.91; Tmax ([2]; Beagle, po 12 mg/kg): 0.25 h; half-life ([2]; Beagle, po 12 mg/kg): 3.3 h; AUC(0-inf) ([2]; beagle, IV 4 mg/kg): 1.45; AUC(0-t) ([2]; beagle, IV 4 mg/kg): 1.29; Tmax ([2]; beagle, IV 4 mg/kg): 0.08 h; half-life ([2]; beagle, IV 4 mg/kg): 2.5 h; AUC(0-inf) ([2]; beagle, po 3 mg/kg): 0.289; AUC(0-t) ([2]; beagle, po 3 mg/kg): 0.182; Tmax ([2]; beagle, po 3 mg/kg): 0.25 h; half-life ([2]; beagle, po 3 mg/kg): 2.6 h; Cl ([2]; po 3 mg/kg): 0.0052 (mg/kg)/(nmo/L)/h; Cl ([2]; po 12 mg/kg): 0.0025 (mg/kg)/(nmo/L)/h

— US12611406B2, “Oxopiperazine derivatives for the treatment of cancer” (Inthera Bioscience AG, priority 2020, dated 2026)
